Results published in PubChem BioAssay (NCI).
“And” between values parts separate entries of the source, which are not always exact repeats. Identical values can stand only once.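 All cell lines were grown in 96-well plates and treated with compound for 48 hours. GI50 = concentration required for 50% inhibition of growth. TGI marks complete inhibition of growth.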

Columns and labels:
Test in all cases: growth of human tumour cells (NCI), 48 h
COLO 205 colon = system: COLO 205 colon
EKVX NSCLC = system: EKVX NSCLC
HS 578T breast = system: HS 578T breast
NCI-H226 lung = system: NCI-H226 lung
RPMI-8226 leukemia = system: RPMI-8226 leukemia
SF-295 CNS = system: SF-295 CNS
SK-MEL-28 melanoma = system: SK-MEL-28 melanoma
SK-OV-3 ovarian = system: SK-OV-3 ovarian
SN12C renal = system: SN12C renal
TK-10 renal = system: TK-10 renal

## O=C1CSC(c2cc3cc(Br)ccc3nc2Cl)N1c1ccc(Cl)cc1 (stereo not drawn)
COLO 205 colon
  TGI: 41.2 µM
EKVX NSCLC
  TGI: > 100 µM
HS 578T breast
  TGI: > 100 µM
NCI-H226 lung
  TGI: > 100 µM
RPMI-8226 leukemia
  TGI: > 100 µM
SF-295 CNS
  TGI: 37.6 µM
SK-MEL-28 melanoma
  TGI: > 100 µM
SK-OV-3 ovarian
  TGI: > 100 µM
SN12C renal
  TGI: 48.7 µM
TK-10 renal
  TGI: 70.7 µM

## O=[N+]([O-])c1ccc(N/N=C\c2cc(Br)ccc2O)nc1
COLO 205 colon
  GI50: 3.3 µM
  TGI: > 100 µM
EKVX NSCLC
  GI50: 2.4 µM
  TGI: 7.69 µM
HS 578T breast
  GI50: 2.13 µM
  TGI: 8.93 µM
NCI-H226 lung
  GI50: 3.11 µM
  TGI: > 100 µM
RPMI-8226 leukemia
  GI50: 0.753 µM
  TGI: > 100 µM
SF-295 CNS
  GI50: 1.05 µM
  TGI: 3.11 µM
SK-MEL-28 melanoma
  GI50: 2.05 µM
  TGI: > 100 µM
SK-OV-3 ovarian
  GI50: 1.27 µM
  TGI: 12 µM
SN12C renal
  GI50: 0.807 µM
  TGI: 12.9 µM

## CC(C)(CCCCC(C)(C)NC1=NCCO1)NC1=NCCO1
COLO 205 colon
  TGI: > 10 µM
EKVX NSCLC
  TGI: > 10 µM
HS 578T breast
  TGI: > 10 µM
NCI-H226 lung
  TGI: > 10 µM
RPMI-8226 leukemia
  TGI: > 10 µM
SF-295 CNS
  TGI: > 10 µM
SK-MEL-28 melanoma
  TGI: > 10 µM
SK-OV-3 ovarian
  TGI: > 10 µM
SN12C renal
  TGI: > 10 µM
TK-10 renal
  TGI: > 10 µM

## COc1ccc(/C=C2\C[C@H]3[C@@H]4CC=C5C[C@@H](O)CC[C@]5(C)[C@H]4CC[C@]3(C)\C2=N\O)cc1
COLO 205 colon
  TGI: 29 µM
EKVX NSCLC
  TGI: 8.78 µM
HS 578T breast
  TGI: 37.5 µM
NCI-H226 lung
  TGI: 94.1 µM
RPMI-8226 leukemia
  TGI: 21.9 µM
SF-295 CNS
  TGI: 34.8 µM
SK-MEL-28 melanoma
  TGI: 72.8 µM
SK-OV-3 ovarian
  TGI: > 100 µM
SN12C renal
  TGI: 44.4 µM
TK-10 renal
  TGI: > 100 µM

## COC(=O)C1=C(O)C(C(=O)OC)[C@@]2(O)[C@@H](C(=O)OC)[C@H](C)C[C@@H]1[C@@H]2C(=O)OC (stereo partly drawn)
EKVX NSCLC
  TGI: 69.6 µM
HS 578T breast
  TGI: 54.1 µM
NCI-H226 lung
  TGI: > 100 µM
RPMI-8226 leukemia
  TGI: 71.5 µM
SK-MEL-28 melanoma
  TGI: > 100 µM
SK-OV-3 ovarian
  TGI: 72.9 µM
SN12C renal
  TGI: > 100 µM
TK-10 renal
  TGI: > 100 µM

## NCCc1ccc(S(=O)(=O)O)cc1[N+](=O)[O-]
COLO 205 colon
  TGI: > 100 µM
EKVX NSCLC
  TGI: > 100 µM
HS 578T breast
  TGI: > 100 µM
NCI-H226 lung
  TGI: > 100 µM
RPMI-8226 leukemia
  TGI: > 100 µM
SF-295 CNS
  TGI: > 100 µM
SK-MEL-28 melanoma
  TGI: > 100 µM
SK-OV-3 ovarian
  TGI: > 100 µM
SN12C renal
  TGI: > 100 µM
TK-10 renal
  TGI: > 100 µM

## COc1cc2c(cc1OCCCOc1cc3c(cc1OC)C(=O)N1CCC[C@H]1C(=O)N3)N=C[C@@H]1CCCN1C2=O
COLO 205 colon
  TGI: 12.1 µM
EKVX NSCLC
  TGI: 46.4 µM
HS 578T breast
  TGI: 84.4 µM
NCI-H226 lung
  TGI: 35.5 µM
RPMI-8226 leukemia
  TGI: 21.2 µM
SF-295 CNS
  TGI: 46.5 µM
SK-MEL-28 melanoma
  TGI: 46.8 µM
SN12C renal
  TGI: 61.5 µM
TK-10 renal
  TGI: 84.5 µM

## C/C=C(/CCC1NCCc2c1[nH]c1ccccc21)[Si](C)(C)C (stereo not drawn)
COLO 205 colon
  TGI: 3.92 µM
EKVX NSCLC
  TGI: > 100 µM and 22.3 µM
NCI-H226 lung
  TGI: > 100 µM and 31.4 µM
SF-295 CNS
  TGI: > 100 µM and 19.2 µM
SK-OV-3 ovarian
  TGI: > 100 µM and 26.2 µM
SN12C renal
  TGI: > 100 µM and 16.9 µM
TK-10 renal
  GI50: > 100 µM and 12.2 µM
  TGI: > 100 µM and 24.8 µM

## COC(=O)C(C)NP(=O)(OCc1cccc(Cn2cnc3c(N)ncnc32)c1)Oc1ccccc1 (stereo not drawn)
EKVX NSCLC
  GI50: > 100 µM
  TGI: > 100 µM
HS 578T breast
  GI50: 32.8 µM
  TGI: > 100 µM
NCI-H226 lung
  GI50: > 100 µM
  TGI: > 100 µM
RPMI-8226 leukemia
  GI50: > 100 µM
  TGI: > 100 µM
SF-295 CNS
  GI50: > 100 µM
  TGI: > 100 µM
SK-MEL-28 melanoma
  GI50: > 100 µM
  TGI: > 100 µM
SN12C renal
  GI50: > 100 µM
  TGI: > 100 µM
TK-10 renal
  GI50: > 100 µM
  TGI: > 100 µM

## O=c1c(-c2ccccc2)c(SCCCN2CCCCC2)n(-c2ccccc2)c(=S)n1-c1ccccc1
COLO 205 colon
  TGI: 36.8 µM
EKVX NSCLC
  TGI: > 100 µM
HS 578T breast
  TGI: > 100 µM
NCI-H226 lung
  TGI: 30.4 µM
RPMI-8226 leukemia
  TGI: 37.7 µM
SF-295 CNS
  TGI: 32.1 µM
SK-MEL-28 melanoma
  TGI: 33.2 µM
SK-OV-3 ovarian
  TGI: 45.4 µM
TK-10 renal
  TGI: 37.3 µM

## NC(Cc1cc(I)c(Oc2ccc(O)c(I)c2)c(I)c1)C(=O)O (stereo not drawn)
COLO 205 colon
  TGI: > 100 µM
EKVX NSCLC
  TGI: > 100 µM
HS 578T breast
  TGI: > 100 µM
NCI-H226 lung
  TGI: > 100 µM
RPMI-8226 leukemia
  TGI: 84 µM
SF-295 CNS
  TGI: > 100 µM
SK-MEL-28 melanoma
  TGI: > 100 µM
SK-OV-3 ovarian
  TGI: > 100 µM
SN12C renal
  TGI: > 100 µM
TK-10 renal
  TGI: > 100 µM

## Fc1ccc2c(c1)SC1=Nc3sc4cc(F)ccc4[n+]3CN12
COLO 205 colon
  TGI: > 100 µM
EKVX NSCLC
  TGI: 79 µM
HS 578T breast
  TGI: 38.4 µM
NCI-H226 lung
  TGI: 56.8 µM
RPMI-8226 leukemia
  TGI: 8.45 µM
SF-295 CNS
  TGI: 74 µM
SK-MEL-28 melanoma
  TGI: > 100 µM
SK-OV-3 ovarian
  TGI: > 100 µM
SN12C renal
  TGI: 51.2 µM
TK-10 renal
  TGI: 42.7 µM
